# Test results taken from US6989380B2, “Treatment of pain” (The WKK Trust, priority 1996, dated 2006).
# System: intractable trigeminal neuralgia
# Assay: Case history: intractable trigeminal neuralgia
# Type: in vivo, human
# Settings: person; treatments tried before the combination; relief attributed to placebo effects
# Method: A person suffered from intractable trigeminal neuralgia of many years standing. […] They then were treated with lofepramine, 70 mg bd, together with L-phenylalanine, 500 mg bd.
row,SMILES,pain relief with earlier treatments
1,CNCCC(Oc1ccc(C(F)(F)F)cc1)c1ccccc1 (centres unmarked) [fluoxetine],None had provided more than transient relief for a few days
2,CN1C(=O)CN=C(c2ccccc2)c2cc(Cl)ccc21 [diazepam],None had provided more than transient relief for a few days
3,NC(=O)N1c2ccccc2C=Cc2ccccc21 [carbamazepine],None had provided more than transient relief for a few days
4,CN1CC[C@]23c4c5ccc(O)c4O[C@H]2[C@@H](O)C=C[C@H]3[C@H]1C5 [morpine],None had provided more than transient relief for a few days
5,O=C1NC(=O)C(c2ccccc2)(c2ccccc2)N1 [phenytoin],None had provided more than transient relief for a few days
